Assay results published in article PMC6155811, “Effect of Phenolic Compounds from Elderflowers on Glucose- and Fatty Acid Uptake in Human Myotubes and HepG2-Cells” (Molecules : A Journal of Synthetic Chemistry and Natural …, 2017).

Key:
[1] = test system: HepG2-cells; test: Oleic acid uptake in HepG2-cells ([14C]-oleic acid); type: cell-based, human; conditions: highest concentration tested
Experimental: Cells were exposed to test samples solved in 0.1% DMSO that were added directly to the medium for 2 days for myotubes and 24 h for HepG2 cells. […] A 96-well UniFilter-96 GF7B microplate (Perkin Elmer, Waltham, MA, USA) was mounted on top of the CellBIND plate (Corning Life-Sciences (Schiphol-Rijk, The Netherlands) and CO2 production was measured. After incubation the cells were washed twice with ice-cold phosphate buffered saline (PBS), lysed in 0.1 M NaOH, and radioactivity measured by liquid scintillation counting. […]

[2] = target: T1, xanthine oxidase from bovine milk (Bos taurus, UniProt P80457); test: Inhibition of xanthine oxidase; type: biochemical; conditions: phenolic compounds and metabolites; IC50 ± SD; read-out: XO IC50
T1 construct: xanthine oxidase from bovine milk; purchased Sigma-Aldrich (St. Louis, MO, USA); host or cells: bovine milk
T1 sequence (P80457 whole entry): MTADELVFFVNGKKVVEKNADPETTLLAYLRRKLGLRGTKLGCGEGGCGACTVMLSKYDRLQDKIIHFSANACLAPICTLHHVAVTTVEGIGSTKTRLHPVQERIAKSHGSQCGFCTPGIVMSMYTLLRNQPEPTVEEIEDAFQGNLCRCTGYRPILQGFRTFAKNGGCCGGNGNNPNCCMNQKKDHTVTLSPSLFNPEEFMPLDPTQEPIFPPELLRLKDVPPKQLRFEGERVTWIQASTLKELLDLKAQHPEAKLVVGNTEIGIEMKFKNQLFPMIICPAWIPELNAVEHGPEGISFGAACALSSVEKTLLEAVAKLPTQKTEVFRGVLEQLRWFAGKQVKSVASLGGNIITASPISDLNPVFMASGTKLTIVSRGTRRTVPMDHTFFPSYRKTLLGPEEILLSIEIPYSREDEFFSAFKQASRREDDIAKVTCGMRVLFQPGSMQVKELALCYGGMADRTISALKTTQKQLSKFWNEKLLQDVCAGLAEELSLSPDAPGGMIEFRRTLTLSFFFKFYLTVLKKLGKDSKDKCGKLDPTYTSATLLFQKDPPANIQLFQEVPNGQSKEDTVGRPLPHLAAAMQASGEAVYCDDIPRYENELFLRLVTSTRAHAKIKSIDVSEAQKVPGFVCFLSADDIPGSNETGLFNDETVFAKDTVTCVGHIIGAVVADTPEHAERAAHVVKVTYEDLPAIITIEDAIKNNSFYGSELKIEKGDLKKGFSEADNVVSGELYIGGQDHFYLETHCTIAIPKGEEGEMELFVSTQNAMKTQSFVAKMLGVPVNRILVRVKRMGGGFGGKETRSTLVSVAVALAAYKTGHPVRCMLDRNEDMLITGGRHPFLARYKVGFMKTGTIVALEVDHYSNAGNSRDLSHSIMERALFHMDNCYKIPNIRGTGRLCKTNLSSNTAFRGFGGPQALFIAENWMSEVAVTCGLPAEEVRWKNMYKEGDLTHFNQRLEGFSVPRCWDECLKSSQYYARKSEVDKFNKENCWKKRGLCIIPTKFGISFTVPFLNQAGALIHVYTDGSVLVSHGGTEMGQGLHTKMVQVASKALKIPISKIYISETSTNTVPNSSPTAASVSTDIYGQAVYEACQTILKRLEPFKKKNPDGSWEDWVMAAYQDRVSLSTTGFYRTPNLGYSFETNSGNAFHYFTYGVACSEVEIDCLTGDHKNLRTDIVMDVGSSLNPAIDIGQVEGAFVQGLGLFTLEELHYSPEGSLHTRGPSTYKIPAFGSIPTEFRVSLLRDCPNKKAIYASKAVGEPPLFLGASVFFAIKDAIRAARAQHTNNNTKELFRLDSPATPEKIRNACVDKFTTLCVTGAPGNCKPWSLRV
Experimental: The XO inhibitory activity with hypoxanthine as the substrate was carried out previously described. Test substances were dissolved in DMSO or water.

[3] = target: T2, Porcine pancreatic α-amylase (Sus scrofa, UniProt P00690); test: α-Amylase inhibitory activity; type: biochemical; conditions: phenolic compounds and metabolites; IC50 ± SD
T2 construct: purchased Sigma-Aldrich Chemie GmbH
T2 sequence (P00690 16-511): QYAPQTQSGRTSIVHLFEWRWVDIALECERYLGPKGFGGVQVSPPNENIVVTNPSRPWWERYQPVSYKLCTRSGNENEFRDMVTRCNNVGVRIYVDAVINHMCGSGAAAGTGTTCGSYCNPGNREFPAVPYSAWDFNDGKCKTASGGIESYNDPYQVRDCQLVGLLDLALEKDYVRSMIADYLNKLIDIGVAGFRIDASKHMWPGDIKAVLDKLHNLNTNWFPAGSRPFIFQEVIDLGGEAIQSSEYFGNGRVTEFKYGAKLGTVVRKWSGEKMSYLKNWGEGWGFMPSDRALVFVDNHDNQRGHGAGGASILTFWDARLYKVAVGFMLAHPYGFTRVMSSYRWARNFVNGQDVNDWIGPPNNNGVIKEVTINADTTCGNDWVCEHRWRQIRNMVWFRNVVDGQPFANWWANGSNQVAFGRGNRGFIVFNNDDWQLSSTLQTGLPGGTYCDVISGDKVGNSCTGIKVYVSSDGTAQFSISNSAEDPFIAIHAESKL
Experimental: The α-amylase assay was performed as described by Gella, et al.. Porcine pancreatic α-amylase (EC 3.2.1.1) was purchased from Sigma-Aldrich Chemie GmbH.

[4] = test system: human skeletal muscle cells; test: Oleic acid uptake in human myotubes ([14C]-oleic acid); type: cell-based; conditions: 10 µM (highest concentration tested), 2 days, vs 0.1% DMSO control
Experimental: Figure 3 Effects of elderflower extracts, constituents and metabolites on oleic acid uptake in human myotubes. Myotubes were treated with (A) 12.5, 25 and 50 µg/mL of different crude extracts; (B,C) 0.1, 1 and 10 µM of elderflower phenolic compounds and metabolites for 2 days. Thereafter, the cells were exposed to [^14C]-oleic acid (37 kBq, 100 µM) for 4 h as described in Materials and Methods. A synthetic liver X receptor (LXR) agonist T0901317 (10 μM) was used as positive control. The figures show [^14C]-oleic acid uptake given as means ± SEM (n = 3) from separate experiments. * p < 0.05 vs. control (0.1% DMSO).
(§1) Satellite cells were isolated from the Musculus obliquus internus abdominis of four healthy donors, age 34.8 (±19) years, body mass index 22.9 (±2.7) kg/m^2, fasting glucose 4.9 (±0.6) mM, insulin, plasma lipids and blood pressure within normal range and no family history of diabetes. The muscle biopsies were obtained with informed consent and approval by the National Committee for Research Ethics (Oslo, Norway). The cells were cultured on 96-well CellBIND microplates DMEM-Glutamax (5.5 mM glucose), 2% fetal bovine serum, 2% Ultroser G, penicillin (100 units/mL), streptomycin (100 μg/mL) and amphotericin B (1.25 μg/mL) for proliferation. At 70%–80% confluence, the growth medium was replaced by DMEM-Glutamax (5.5 mM glucose) supplemented with 2% fetal bovine serum, penicillin (100 units/mL), streptomycin (100 μg/mL), amphotericin B (1.25 μg/mL) and insulin (25 pM), to induce differentiation. The cells were cultured in humidified 5% CO2 atmosphere at 37 °C, and the medium was changed every 2–3 days. Experiments were performed after 7 days of differentiation. 22-S-hydroxycholesterol (22-SHC) (10 µM) was used as positive control in the glucose uptake assay. The positive control used in the oleic acid assay is the synthetic liver X receptor (LXR) agonist T0901317 (10 µm).
(§2) Cells were exposed to test samples solved in 0.1% DMSO that were added directly to the medium for 2 days for myotubes and 24 h for HepG2 cells. Thereafter, cells were exposed to [^14C(U)]-glucose (1 μCi/mL, 100 μM) or [^14C]-oleic acid (37 kBq, 100 µM) for 4 h. A 96-well UniFilter-96 GF7B microplate (Perkin Elmer, Waltham, MA, USA) was mounted on top of the CellBIND plate (Corning Life-Sciences (Schiphol-Rijk, The Netherlands) and CO2 production was measured. After incubation the cells were washed twice with ice-cold phosphate buffered saline (PBS), lysed in 0.1 M NaOH, and radioactivity measured by liquid scintillation counting. The protein content of each sample was determined and glucose uptake was calculated using protein levels for standardization.

[5] = target: T3, 15-lipoxygenase (15-LO) from soybeans (Glycine max, UniProt P08170); test: Inhibition of 15-lipoxygenase; type: biochemical, soybean; conditions: phenolic compounds and metabolites; IC50 ± SD; read-out: 15-LO IC50
T3 construct: 15-lipoxygenase (15-LO) from soybeans; purchased Sigma-Aldrich (St. Louis, MO, USA); host or cells: soybeans
T3 sequence (P08170 1-839): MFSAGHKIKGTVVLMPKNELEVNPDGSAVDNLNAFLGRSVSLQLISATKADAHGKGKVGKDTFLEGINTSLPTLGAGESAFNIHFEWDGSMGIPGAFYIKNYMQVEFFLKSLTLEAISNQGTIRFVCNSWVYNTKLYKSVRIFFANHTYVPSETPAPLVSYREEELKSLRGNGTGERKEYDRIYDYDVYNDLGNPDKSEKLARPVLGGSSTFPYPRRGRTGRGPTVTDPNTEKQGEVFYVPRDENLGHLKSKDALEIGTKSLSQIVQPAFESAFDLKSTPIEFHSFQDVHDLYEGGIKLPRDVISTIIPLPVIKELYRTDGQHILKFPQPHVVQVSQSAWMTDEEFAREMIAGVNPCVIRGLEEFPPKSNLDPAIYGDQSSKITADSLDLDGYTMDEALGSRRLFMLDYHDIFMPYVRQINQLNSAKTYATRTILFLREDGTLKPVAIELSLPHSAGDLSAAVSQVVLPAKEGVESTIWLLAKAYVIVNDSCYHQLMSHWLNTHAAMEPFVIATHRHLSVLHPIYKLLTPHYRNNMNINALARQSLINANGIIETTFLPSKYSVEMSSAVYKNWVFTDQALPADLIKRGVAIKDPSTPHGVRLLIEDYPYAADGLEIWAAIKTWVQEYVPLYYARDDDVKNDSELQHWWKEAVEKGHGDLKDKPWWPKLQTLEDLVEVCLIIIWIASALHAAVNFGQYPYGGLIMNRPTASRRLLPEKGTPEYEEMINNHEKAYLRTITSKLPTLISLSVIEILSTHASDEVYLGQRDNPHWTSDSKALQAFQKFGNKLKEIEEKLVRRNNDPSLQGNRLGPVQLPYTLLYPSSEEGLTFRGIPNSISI
Experimental: Test substances were dissolved in DMSO or water, and the assay was carried out as previously described.

[6] = DPPH radical scavenging; conditions: IC50 ± SD; for IC50: phenolic compounds and metabolites
Experimental: Scavenging activity towards the DPPH radical was carried out as previously described. Test substances were dissolved in DMSO or water. Values were corrected for absorbance of the test substances.

[7] = test system: HepG2-cells; test: Glucose uptake in HepG2-cells ([14C(U)]-glucose); type: cell-based, human; conditions: 24 h, vs 0.1% DMSO control
Experimental: The human hepatoblastoma cell line HepG2 (HB-8065, ATCC, Manassas, VA, USA) was cultured in DMEM-Glutamax (5.5 mM glucose) supplemented with 10% fetal bovine serum, streptomycin (100 μg/mL) and penicillin (100 units/mL) at 37 °C in 5% CO2.
as §2

[8] = test system: human skeletal muscle cells; test: Glucose uptake in human myotubes ([14C(U)]-glucose); type: cell-based; conditions: 10 µM, 2 days, vs 0.1% DMSO control; mean ± SEM
Experimental: Figure 2 Effects of elderflower extracts, constituents and metabolites on glucose uptake in human myotubes. Myotubes were treated with (A) 12.5, 25 and 50 µg/mL of different crude extracts; (B,C) 0.1, 1 and 10 µM of elderflower phenolic compounds and metabolites for 2 days. Thereafter, the cells were exposed to [^14C(U)]-glucose (1 μCi/mL, 100 μM) for 4 h as described in the Materials and Methods section. 22-S-hydroxycholesterol (22-SHC) (10 μM) was used as positive control. The figures show [^14C(U)]-glucose uptake given as means ± standard error of the mean (SEM) (n = 3) from separate experiments. * p < 0.05 vs. control (0.1% dimethyl sulfoxide (DMSO)).
as §1, §2

Row | Structure (SMILES) | enhancement of oleic acid uptake [1] | IC50 [2] [µM] | IC50 [3] [µM] | increase in oleic acid uptake [4] | IC50 [5] [µM] | DPPH IC50 ([6]; crude extracts) [µg/mL] | IC50 [6] [µM] | maximal increase in glucose uptake [7] | increase in glucose uptake [8]
1 | O=C(/C=C/c1ccc(O)c(O)c1)O[C@@H]1C[C@](O)(C(=O)O)C[C@@H](O)[C@H]1O [Chlorogenic acid] | 25.6% ± 4.6% | 24.2 ± 5.3 | 9.1 ± 1.1 | 17.3% ± 2.5% | 106 ± 2.3 | – | – | – | –
2 | O=c1c(O)c(-c2ccc(O)c(O)c2)oc2cc(O)cc(O)c12 [Quercetin] | – | – | – | – | – | 2.8 ± 0.3 | 9.3 ± 1.5 | 41.1% ± 3.2% | 37.1% ± 4.6%
3 | O=c1c(O)c(-c2ccc(O)cc2)oc2cc(O)cc(O)c12 [Kaempferol] | – | – | 3.6 ± 1.1 | 25.0% ± 3.0% | 93.7 ± 3.7 | – | 10.6 ± 3.9 | 45.2% ± 2.6% | 39.1% ± 5.8%
